# Source: patent US20220160812A1, “A PHARMACEUTICALLY ACTIVE SUBSTANCE” (Cytopharma GmbH, priority 2019, published 2022)
# Tests used:
# A375 melanoma cells [1] = experiment: cell vitality FACS analysis (region R-1, FSC/SSC), A375 melanoma cells; assay type: cell-based, human; conditions: A375, Protocol A, about 24 hours, FIG. 7; for decrease of cell vitality, comparison in words: any concentration (100, 200, 500 μM)
# Protocol: (§1) To transfer adherent cells (A375 and BxPC-3 cells) after culture, cells are washed twice with PBS. To detach the cells, the enzyme biotase is used according to the manufacturer's instructions. For this purpose, after washing with PBS, the cells are mixed with biotase (5 ml of biotase solution per 75 cm^2 surface of the cell culture bottles) and incubated for 5 min at 37 degrees Celsius, and the biotase is separated by centrifugation. Cells cultivated in suspension (MEC-1 and lymphocytes) were transferred by dilution. The cells are suspended in culture medium and counted, each time 1.5×10^5 cells/cm^2 are seeded in 48-well plates and cultured for between 1.5 and 24 hours at 37 degrees Celsius, 5% CO2. Peptides are pre-diluted from stock solution with culture medium and 200 μl of peptide solution added so that final concentrations of 30 to 500 μM peptide are present in at most 1% (v/v) DMSO. As control solutions, culture medium without peptide (DMSO-containing) in culture medium or etoposide solution is added. After incubating the cells for several hours, the cell supernatant is transferred to a FACS tube for each batch and, after washing the cells with PBS, the wash solution is added. Then the cells are incubated with 200 μl of biotase solution for 10 min, 37° C., the cells with the biotase are also transferred to the FACS tube and the cells are collected by centrifugation for 5 min. The cell pellet is suspended in 500 μl of serum-free culture medium, then 1.5 ml of cold 80% ethanol (ethanol/PBS-80/20, v/v, stored at −20° C.) is added, the FACS tubes sealed and stored at −20 degrees Celsius for 15 to 18 h. Thereafter, the cells are centrifuged for 5 minutes at 120 g, suspended after removal of the supernatant in 2 ml PBS and incubated at 37 degrees Celsius for 30 minutes. After re-centrifugation, the cells are suspended in 0.5 ml DAPI solution and incubated for 15 min at 20 degrees Celsius in the dark. Thereafter, the cells are stored dark for a maximum of four hours in an ice bath, followed by the FACS analysis.
# For suspension cells (MEC-1 and lymphocytes/PBMC) and for adherent cells analyzed according to Protocol A, FACS analysis to determine subG1 cell cycle and vital cell fractions was done on a Becton Dickinson LSR Fortessa flow cytometer. The analysis by FACS including subG1 and vital cell analysis according to protocol B was performed with a Cytomics FC 500 MPL flow cytometer from Beckman Coulter.
# Changes of the cell form during cell death by apoptosis are documented in the literature (Lizard et al. 1995; Taga et al. 2000; Vermes et al., 2000). The protocols for cell cultivation, treatment and preparation of the cells before flow cytometry is detailed in separate examples. Cell suspensions of cell lines A375, BxPC-3, MEC-1 or of primary lymphocytes (see separate example of lymphocyte preparation) are analyzed by flow cytometry. The data are further analyzed by using the program “Flowing Software 2”. The data of light scattering are drawn in a two-dimensional FSC/SSC plot. Since the position in the FSC/SSC plot of apoptotic cells changes relative to non-apoptotic cells (Vermes et al., 2000), a region (R-1) is drawn representing mainly non-apoptotic cells and excluding cells with both low FSC and low SSC values and excluding cells with high values of FSC and/or SSC (FIG. 1). The regions are individually selected for each cell type (A375, BxPC-3, MEC-1 and primary lymphocytes). The percentage of untreated non-apoptotic cells in the region R-1 relative to total cells is set to 100%, representing 100% vital cells. The fraction (%) of cells in R-1 relative to the total number of cells in case of cell treatment by certain peptides or by cytotoxic drugs results in cell vitality, below 100%, thereby indicating a loss of cell vitality by the treatment. […]
# A375 melanoma cells [2] = experiment: subG1 cell cycle FACS apoptosis assay, A375 melanoma cells; assay type: cell-based, human; conditions: about 24 hours, FIG. 3
# Protocol: as §1
# The adherent cells (A375 and BxPC-3 cells and MDA-MB-231, respectively) are seeded 24 hours before induction in 6-well plates in culture medium. For this, the cells are washed with PBS, then incubated with trypsin/EDTA solution at 37 degrees Celsius and suspended in culture medium. The 6-well plates are loaded with 1×10^5 cells/cm^2 in culture medium and the cells incubated for 24 hours until induction with the peptides in the incubator. For induction, the peptides are diluted in fresh culture medium. As control solutions, culture medium without peptide (DMSO-containing) in culture medium or etoposide solution is added. The cells are washed with PBS. Thereafter the peptide solution in culture medium is added to the cells. After incubation in the incubator (37° C., 5% CO2) between 1.5 and 24 hours, the cell supernatant is transferred to 15 ml centrifuge tubes, the cells are washed with 0.75 ml PBS and then with 0.5 ml versene solution. Both washings are combined with the cell supernatant. The cells are then added with 0.5 ml of trypsin/EDTA solution and incubated at about 37° C. for at most 10 minutes until the cells detached. The cell suspension is combined with cell supernatant and washings and centrifuged at about 130 g for about 10 minutes. After removing the supernatant, the cells are suspended in 400 μl of cell culture medium (without serum) and mixed with 1.2 ml of 80% ethanol/20% PBS (v/v) and incubated for 1 to 7 days at −20° C. For analysis, the cells are centrifuged at 130 g for 10 min, suspended in 2 ml PBS, and centrifuged again for 5 min. The cells are suspended in 700 μl PI buffer and incubated for 10 min at 37° C. in the dark. Subsequently, the cells are stored dark for a maximum of four hours in an ice bath, then the FACS analysis is performed.
# The proportion of cells which have died was determined by two methods, both rely on the analysis of cells by flow cytometry, often called FACS analysis. […]
substance,measurement,setting,value
s-q-t-v-q-k-w-m-v-v-y-f-r [SEQID No 38],efficiency (decrease of cell vitality) in view of Peptide SEQ C1,A375 melanoma cells [1]; 200 μM,at least threefold
same,efficiency (decrease of cell vitality) in view of Peptide SEQ C1,A375 melanoma cells [1]; 500 μM,at least tenfold
same,"decrease of cell vitality, comparison in words",A375 melanoma cells [1],clear improvement over peptides SEQID NO 27 and SEQID NO 39 at any concentration
same,"decrease of cell vitality, comparison in words",A375 melanoma cells [1]; listed as SEQID NO 38,significantly greater decrease than the peptide of the prior art (Peptide SEQ C1)
same,"apoptosis efficiency (subG1), comparison in words","A375 melanoma cells [2]; A375, Protocol A, 100, 200, 500 μM",clear improvement over peptide SEQID NO 27 at a concentration below 500 μM and over Peptide SEQID NO 39 at a concentration above 100 μM
same,apoptosis efficiency (subG1) in view of Peptide SEQ C1,"A375 melanoma cells [2]; A375, Protocol A, any concentration (100, 200, 500 μM)",at least tenfold
